Experimental data: US20070082928A1, “Method for treating anxiety disorders, substance abuse/dependence, binge-eating disorders, insomnia and drug-induced flashbacks” (priority 2005, published 2007)

What was measured:
Assay type in all cases: in vivo, human
[1] = tested on: Person with post-traumatic stress disorder (PTSD); experiment: Case History 1: donepezil in a rape victim with PTSD after suspected GHB intake
Excerpt: A person had been living in NYC for their work since January 2005. On Jun. 15, 2005, they met some friends after dinner and went dancing with them. They experienced a strange sensation late in the evening after drinking a glass of champagne. They remembered feeling drowsy and confused. They had to stop dancing because of a severe sedation and took a taxi. A […] they didn't know until now accompanied them to their apartment, which was unusual for them.
They didn't remember anything about the taxi drive and their trip back home. They remembered being with an unknown person and strangely being led down on their couch in their living room and looking at them.
Thereafter they repeatedly saw themself waking up in the morning and looking at their bed where they had discovered a preservative, a proof that a sexual behaviour had occurred between 2 and 6 am.
They experienced terrifying nightmares and repetitive uncontrolled behaviour consisting of looking at […] waking up alone with a desperate feeling of being sexually abused and of loneliness. […] About the evening and the rape they remembered only their inability to move, refusing sexual advances of the unknown person, and feeling uncomfortable because of their unusual behaviour.
On Jun. 20, 2005, they consulted in the Department of Psychiatry at Saint-Antoine Hospital in Paris. […] A legal procedure was initiated in NYC before coming back to Paris. […] A toxicological analysis was performed using hair sample for detection of the suspected drug GHB.
During the initial interview, they were unable to give any detail about the evening and the night of the rape. A person requested a method to decrease their anxiety symptoms, insomnia and nightmares associated with the traumatic event. After a discussion about the case, it was decided on Jun.

[2] = tested on: Person with GAD anxiety symptoms; experiment: Case history 3: donepezil in a patient with GAD anxiety symptoms persisting after MDD
Excerpt: A person complained about insomnia, restlessness, tension, headaches, gastric symptoms, upset stomach, dizziness, fatigue, loss of appetite, and libido deficit. A person has been married for 13 years. Their spouse is a person working as an assistant director. The couple was well functioning, with two children, a child and a child in good health. A person was in good physical health and had no significant medical antecedent. A person had no previous psychiatric antecedent, nor any family history of mental disorders. […] […] a person is the youngest of 14 brothers and sisters.
A person was hospitalized in the Department of Psychiatry at Saint-Antoine Hospital and treated for MDD with venlafaxine from July 15 to Aug. […] Their anxiety consisted of excessive worrying, restlessness, tension, fatigue, loss of concentration, irritability, severe muscle tension and difficulty falling asleep. These symptoms met the GAD DSM IV criteria and persisted during the depressive episode and also when they no longer met the criteria for MDD. […] 9, 2005 to treat their anxiety symptoms. […] On Sep.

[3] = tested on: Person with Generalized Anxiety (GAD), PTSD and cannabis dependence; experiment: Case History 2: donepezil in a patient with GAD, PTSD, cannabis dependence, alcohol dependence and binge-eating disorder
Excerpt: a person has no other psychiatric antecedent.
Despite them on-going biweekly psychotherapy, they continued to abuse cannabis at about 2 to 3 joints a day.

[4] = two weeks after increase to 5 mg b.i.d.
[5] = 5 mg once a day, after one week, on ongoing venlafaxine
[6] = 5 mg once a day, after one week
[7] = 5 mg once a day, patient report

COc1cc2c(cc1OC)C(=O)C(CC1CCN(Cc3ccccc3)CC1)C2.Cl (racemic) [donepezil, (±)-2,3-dihydro-5,6-dimethoxy-2-[[1-(phenylmethyl)-4-piperidinyl]methyl]-1H-inden-1-one hydrochloride]
recall of details of the traumatic event ([1]; 5 mg once a day, after 7 days): some of the details of the post-traumatic event | sleep and nightmares ([1]; 5 mg once a day, after 7 days): slept better without nightmares | anxiety ([1]; 5 mg once a day, after one week of treatment): began to feel less anxious | anxiety and tension [1, 4]: no more anxious nor tense | sleep [1, 4]: returned to normal without nightmares | anti-anxiety effect [2, 5]: definite anti-anxiety effect | side effects [2, 5]: No side effects were observed | anxiety symptoms / return to work ([2]; 6 days after increase to 5 mg b.i.d.): able to return to work without any anxious symptoms | alcohol intake ([3]; 5 mg once a day): significantly produced a decrease | verbal fluency and cognitive performances ([3]; 5 mg once a day): did not improve | binge-eating disorder [3, 6]: completely disappeared | nightmares [3, 6]: completely disappeared | craving for caffeine, nicotine, cannabis and binge-eating ([3]; 5 mg once a day, follow-up): significantly improved to the extent of disappearing | GAD anxiety symptoms (nervousness, muscle tension, restlessness, anxiety, worry, insomnia, and tremor) ([3]; 5 mg once a day, follow-up August 30 and Sept. 2, 2005): much improved | euphoria [3, 7]: no longer euphoric | judgement [3, 7]: significantly improved | motor coordination [3, 7]: improved | sensations of slowed time [3, 7]: no more sensations of slowed time | social withdrawal [3, 7]: no longer socially withdrawn | cannabis smoking ([3]; 5 mg once a day, before: 2 to 3 joints a day): completely stop cannabis smoking without any withdrawal symptoms, nor craving symptoms | effect of dose increase (nightmares related to drug withdrawal) ([3]; increased to 5 mg b.i.d.): further improvement with disappearance of nightmares

COc1ccc(C(CN(C)C)C2(O)CCCCC2)cc1 (stereo not drawn) [venlafaxine]
anxiety symptoms ([2]; ongoing venlafaxine 100 mg t.i.d.): did not respond | depression (MDD) ([2]; treated from July 15 to Aug. 8, 2005, in hospital): recovered completely

CN1CCN2c3ncccc3Cc3ccccc3C2C1 (stereo not drawn) [mirtazapine]
depressive symptoms (MDD) ([3]; 15 mg h.s. with biweekly psychotherapy, after 2 months of treatment): complete recovery
